Patent publication US7078400B2, “20-HETE synthase inhibitor” (Taisho Pharmaceutical Co., Ltd., priority 1999, dated 2006)

Tests used:
[1] = test system: 20-HETE synthase originated from rat kidney microsome; experiment: Inhibitory effect of 20-HETE synthase originated from rat kidney microsome; assay type: biochemical; conditions: for Inhibition rate (1 μM): 20-HETE production without compound set to 100%
In short: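 Kidney microsomes from 6-week male spontaneously hypertensive rats were used with tritium-arachidonic acid and NADPH. 20-HETE was quantified by radio-HPLC on a C18 column.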

[2] = 1 μM of subject compound, rat kidney microsome
[3] = concentration at which 20-HETE production was inhibited to 50%, rat kidney microsome
[4] = concentration at which production of 20-HETE was inhibited to 50%

Row | Compound | melting point [°C] | IC50 [1, 3] [nM] | IC50 [1, 4] [nM] | Inhibition rate (1 μM) [1, 2] | Inhibition rate (1 μM) ([1]; 1 μM of the subject compound)
1 | O/N=C/Nc1ccc(OCCCc2ccccc2)cc1 [Comp. 349] | 152.5 to 153 | 1.6 | – | 100 | –
2 | O/N=C/Nc1ccc(OCc2cccs2)cc1 [Comp. 350] | 168 to 168.5 | 1.4 | – | 91 | –
3 | O/N=C/Nc1ccc(OCc2ccco2)cc1 [Comp. 352] | 158.5 to 159.5 | 4.6 | – | 97 | –
4 | Cc1ncsc1CCOc1ccc(N/C=N/O)cc1 [Comp. 353] | 158 to 160 | 3.7 | – | 105 | –
5 | CC(C)OCCOc1ccc(N/C=N/O)cc1 [Comp. 354] | 113 to 114 | 3 | – | 106 | –
6 | O/N=C/Nc1ccc(OCCN2CCOCC2)cc1 [Comp. 355] | 141 to 142 | 5.9 | – | 107 | –
7 | O/N=C/Nc1ccc(OCC2CC2)cc1 [Comp. 356] | 141 to 142.5 | 2.6 | – | 102 | –
8 | O/N=C/Nc1ccc(OCCCc2ccccn2)cc1 [Comp. 358] | 138 to 139.5 | 3.1 | – | 103 | –
9 | O/N=C/Nc1ccc(OCCSc2ccccn2)cc1 [Comp. 359] | 132.5 to 134.5 | 1.4 | – | 102 | –
10 | CCSCCOc1ccc(N/C=N/O)cc1 [Comp. 361] | 104 to 106 | 2.1 | – | 106 | –
11 | O/N=C/Nc1ccc(OCc2cccnc2)cc1 [Comp. 362] | 156 to 157 | 2.1 | – | 106 | –
12 | O/N=C/Nc1ccc(OCCCc2cccnc2)cc1 [Comp. 363] | 154 to 155 | 0.78 | – | 105 | –
13 | CC1(C)COC(CCOc2ccc(N/C=N/O)cc2)OC1 [Comp. 364] | 136.5 to 137.5 | 2 | – | 104 | –
14 | O/N=C/Nc1ccc(OCCCOc2ccccc2)cc1 [Comp. 365] | 143.5 to 145 | 1.4 | – | 105 | –
15 | O/N=C/Nc1ccc(OCCCc2ccncc2)cc1 [Comp. 366] | 188 to 189 | 1.2 | – | 105 | –
16 | O/N=C/Nc1ccc(OCc2ccsc2)cc1 [Comp. 367] | 165 to 166 | 2.1 | – | 103 | –
17 | O/N=C/Nc1ccc(OCc2ccoc2)cc1 [Comp. 368] | 165.5 to 166 | 2.5 | – | 96 | –
18 | Cc1cccc(COc2ccc(N/C=N/O)cc2)n1 [Comp. 369] | 146.5 to 149 | 3.1 | – | 105 | –
19 | CCOCCCOc1ccc(N/C=N/O)cc1 [Comp. 371] | 93 to 94 | 0.9 | – | 110.4 | –
20 | CCCCOCCOc1ccc(N/C=N/O)cc1 [Comp. 373] | 97 to 99 | 0.8 | – | 115.3 | –
21 | COc1ccccc1COc1ccc(N/C=N/O)cc1 [Comp. 382] | 153 to 153.5 | 3.1 | – | 122.5 | –
22 | O/N=C/Nc1ccc(OCc2cc(F)ccc2F)cc1 [Comp. 384] | 167 to 167.5 | 2.8 | – | 117.3 | –
23 | CSc1ccc(COc2ccc(N/C=N/O)cc2)cc1 [Comp. 387] | 163 to 164 | 0.9 | – | 97.8 | –
24 | COc1ccc(COc2ccc(N/C=N/O)cc2)cc1 [Comp. 389] | 167 to 167.5 | 1.6 | – | 105.5 | –
25 | COc1cccc(COc2ccc(N/C=N/O)cc2)c1 [Comp. 390] | 152.5 to 153.5 | 2.7 | – | 112.8 | –
26 | Cc1cccc(COc2ccc(N/C=N/O)cc2)c1 [Comp. 391] | 161.5 to 162 | 2.4 | – | 113.4 | –
27 | O/N=C/Nc1ccc(OCc2ccc(F)cc2)cc1 [Comp. 392] | 165.5 to 166 | 2.4 | – | 109.6 | –
28 | N#Cc1cccc(COc2ccc(N/C=N/O)cc2)c1 [Comp. 393] | 143 to 146 | 1.1 | – | 124.3 | –

The next lines start with results.

Row | melting point [°C] | IC50 [1, 3] [nM] | IC50 [1, 4] [nM] | Compound | Inhibition rate (1 μM) [1, 2] | Inhibition rate (1 μM) ([1]; 1 μM of the subject compound)
29 | 144 to 145 | 3.9 | – | COc1cccc(COc2ccc(N/C=N/O)cc2)c1OC [Comp. 394] | 119.9 | –
30 | 178 to 178.5 | 2.1 | – | COc1ccc(COc2ccc(N/C=N/O)cc2)c(OC)c1 [Comp. 395] | 111.6 | –
31 | 118 to 120 | – | 98 | CN(C)CCOc1ccc(N/C=N/O)cc1 [Comp. 399] | – | 102.3
32 | 115 to 117 | – | 48.7 | CN(C)CCCOc1ccc(N/C=N/O)cc1 [Comp. 400] | – | 116.9
33 | 100 to 102 | – | 37.6 | CN(C)CCCCOc1ccc(N/C=N/O)cc1 [Comp. 401] | – | 117.4
34 | 95 to 96 | – | 18.7 | CN(C)CCCCCCOc1ccc(N/C=N/O)cc1 [Comp. 402] | – | 118.8
35 | 101.5 to 102 | – | 28.5 | CN(C)CC(C)(C)COc1ccc(N/C=N/O)cc1 [Comp. 403] | – | 118.3
36 | 57.5 to 59 | – | 116 | CN(C)CCOCCOc1ccc(N/C=N/O)cc1 [Comp. 404] | – | 114.9
37 | 127.5 to 129.5 | – | 4.9 | O=C1CCCN1CCOc1ccc(N/C=N/O)cc1 [Comp. 407] | – | 94.3
38 | 177 to 177.5 | – | 4.2 | O=C1CCCN1CCCOc1ccc(N/C=N/O)cc1 [Comp. 408] | – | 103.0
39 | 145 to 146 | – | 6.7 | O/N=C/Nc1ccc(OCC2CCO2)cc1 (stereo not shown) [Comp. 409] | – | 113.2
40 | 153 to 155 | – | 1 | O/N=C/Nc1ccc(OCC2COc3ccccc3O2)cc1 (stereo not shown) [Comp. 410] | – | 117.3
41 | 150.5 to 151.5 | – | 3.1 | O/N=C/Nc1ccc(OCCn2cccc2)cc1 [Comp. 411] | – | 122.4
42 | 130 to 130.5 | – | 1.5 | O/N=C/Nc1ccc(OCCCn2cccc2)cc1 [Comp. 412] | – | 119.4
43 | 112 to 113 | – | 2.3 | CSCCOc1ccc(N/C=N/O)cc1 [Comp. 413] | – | 120.2
44 | 132 to 133.5 | – | 1 | CSCCCOc1ccc(N/C=N/O)cc1 [Comp. 414] | – | 113.2
45 | 114 to 117 | – | 17.6 | CN1CCCC(COc2ccc(N/C=N/O)cc2)C1 (stereo not shown) [Comp. 415] | – | 103.7
46 | 99.5 to 102.5 | – | 16.3 | CN1CCCC1CCOc1ccc(N/C=N/O)cc1 (stereo not shown) [Comp. 416] | – | 85.8

Row | melting point [°C] | IC50 [1, 3] [nM] | IC50 [1, 4] [nM] | Compound | Inhibition rate (1 μM) [1, 2] | Inhibition rate (1 μM) ([1]; 1 μM of the subject compound)
47 | 146.5 to 148 | – | 90 | CN1CCCCC1COc1ccc(N/C=N/O)cc1 (stereo not shown) [Comp. 417] | – | 102.8
48 | 147 to 148.5 | – | 8 | O/N=C/Nc1ccc(OCC2CCCO2)cc1 (stereo not shown) [Comp. 420] | – | 118.6
49 | 153 to 154.5 | – | 3.9 | O/N=C/Nc1ccc(OCC2CCCCO2)cc1 (stereo not shown) [Comp. 421] | – | 113.3
50 | 132 to 134 | – | 1.5 | O/N=C/Nc1ccc(OCCc2cccs2)cc1 [Comp. 422] | – | 121.6
51 | 132 to 134.5 | – | 2.2 | O/N=C/Nc1ccc(OCCc2ccsc2)cc1 [Comp. 423] | – | 118.4
52 | 102 to 103.5 | – | 1.5 | CCOC(=O)CCCCCOc1ccc(N/C=N/O)cc1 [Comp. 424] | – | –
53 | > 300 | – | 3 | O=C([O-])CCCCCOc1ccc(N/C=N/O)cc1.[Na+] [Comp. 425] | – | –
54 | 101.5 to 104 | – | 5.1 | CC(=O)OCCCCCOc1ccc(N/C=N/O)cc1 [Comp. 426] | – | –
55 | 143.5 to 144.5 | – | 51.5 | O/N=C/Nc1ccc(OCCCN2CCCCC2)cc1 [Comp. 428] | – | –
56 | 139.5 to 141 | – | 7.4 | N#CCCCOc1ccc(N/C=N/O)cc1 [Comp. 430] | – | –
57 | 113 to 115 | – | 47.7 | O/N=C/Nc1ccc(OCCCCCN2CCCCC2)cc1 [Comp. 431] | – | –
58 | 116.5 to 117.5 | – | 19.5 | O/N=C/Nc1ccc(OCCCCCN2CCCC2)cc1 [Comp. 432] | – | –
59 | 125 to 127 | – | 1.5 | CCOC(=O)CCCCOc1ccc(N/C=N/O)cc1 [Comp. 433] | – | –
60 | > 300 | – | 3.2 | O=C([O-])CCCCOc1ccc(N/C=N/O)cc1.[Na+] [Comp. 434] | – | –
61 | 133 to 134.5 | – | 2.2 | CC(=O)OCC(COc1ccc(N/C=N/O)cc1)OC(C)=O (stereo not shown) [Comp. 435] | – | –
62 | 140.5 to 141 | – | 79.2 | OCC(O)COc1ccc(N/C=N/O)cc1 (stereo not shown) [Comp. 436] | – | –
63 | 144.1 to 144.2 | – | 2.9 | CC(C)Sc1ccc(N/C=N/O)cc1 [Comp. 439] | – | 92.3
